Key:
Test in all cases: Caspase Inhibition Assay
Caspase-3 = biological target: T1, Caspase-3 (Homo sapiens, UniProt P42574)
T1 sequence (P42574 whole entry): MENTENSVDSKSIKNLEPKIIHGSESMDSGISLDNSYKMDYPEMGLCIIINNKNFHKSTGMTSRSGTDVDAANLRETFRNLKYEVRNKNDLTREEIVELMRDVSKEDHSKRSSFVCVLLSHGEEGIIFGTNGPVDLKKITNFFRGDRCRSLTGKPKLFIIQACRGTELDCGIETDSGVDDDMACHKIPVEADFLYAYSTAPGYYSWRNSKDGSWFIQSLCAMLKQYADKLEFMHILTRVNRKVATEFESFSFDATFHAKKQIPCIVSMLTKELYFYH
Description: (§1) The substrate peptides terminating in AMC are processed by caspases with or without inhibitors, and the accumulation of AMC was assessed with a Cytofluor fluorescent plate reader at excitation and emission wavelengths of 380 and 460 nm. Compounds were tested, and full IC50 curves were run for all compounds expressing measurable inhibitory activity.

Caspase-8 = Caspase-8 (Homo sapiens, UniProt Q14790)
Sequence of Caspase-8 (Q14790 217-374 limits assumed): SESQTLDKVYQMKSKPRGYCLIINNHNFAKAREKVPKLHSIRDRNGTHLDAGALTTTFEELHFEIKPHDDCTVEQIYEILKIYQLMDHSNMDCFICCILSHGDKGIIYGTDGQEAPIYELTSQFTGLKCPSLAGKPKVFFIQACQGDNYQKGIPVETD
Sequence of Caspase-8 (Q14790 385-479 limits assumed): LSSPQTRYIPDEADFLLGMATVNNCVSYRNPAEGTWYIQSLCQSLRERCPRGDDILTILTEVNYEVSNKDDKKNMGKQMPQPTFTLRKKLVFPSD
Description: as §1

Caspase-1 = biological target: T2, Caspase-1 (Homo sapiens, UniProt P29466)
T2 sequence (P29466 whole entry): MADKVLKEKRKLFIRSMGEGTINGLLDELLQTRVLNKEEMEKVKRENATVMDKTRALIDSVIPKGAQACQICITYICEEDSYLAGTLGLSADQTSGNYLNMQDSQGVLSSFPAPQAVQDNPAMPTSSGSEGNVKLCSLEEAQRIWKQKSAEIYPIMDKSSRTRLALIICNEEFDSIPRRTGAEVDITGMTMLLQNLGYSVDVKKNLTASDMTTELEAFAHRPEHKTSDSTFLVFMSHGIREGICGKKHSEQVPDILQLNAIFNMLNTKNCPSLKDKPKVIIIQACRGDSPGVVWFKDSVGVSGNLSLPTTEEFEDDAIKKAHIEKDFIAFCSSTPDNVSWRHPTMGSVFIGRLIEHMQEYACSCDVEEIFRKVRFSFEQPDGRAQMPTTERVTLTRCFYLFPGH
Description: as §1

Caspase-7 = biological target: T3, Caspase-7 (Homo sapiens, UniProt P55210)
T3 sequence (P55210 whole entry): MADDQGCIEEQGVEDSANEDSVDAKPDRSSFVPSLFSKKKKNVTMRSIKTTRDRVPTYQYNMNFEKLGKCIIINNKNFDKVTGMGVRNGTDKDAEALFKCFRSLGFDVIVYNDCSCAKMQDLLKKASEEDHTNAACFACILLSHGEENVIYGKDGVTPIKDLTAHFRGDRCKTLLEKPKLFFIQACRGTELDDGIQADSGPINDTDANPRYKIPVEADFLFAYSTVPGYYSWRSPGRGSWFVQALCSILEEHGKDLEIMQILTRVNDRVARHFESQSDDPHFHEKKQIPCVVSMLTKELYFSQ
Description: as §1

Compound	IC50 (Caspase-3) [nM]	IC50 (Caspase-8) [nM]	IC50 (Caspase-1) [nM]	IC50 (Caspase-7) [nM]	IC50 (Caspase-3; pH 7, 37 °C) [nM]
COc1ccc(Br)cc1[C@@H](C(=O)N[C@H](C(=O)N[C@@H](CC(=O)O)C(=O)CSCc1ccccc1)C(C)C)C(C)C [(3S)-5-(benzylsulfanyl)-3-[(2S)-2-[(2S)-2-(5-bromo-2-methoxyphenyl)-3-methylbutanamido]-3-methylbutanamido]-4-oxopentanoic acid]		1320	> 10000	> 10000	9440
COc1ccc(Br)cc1[C@H](Cc1ccccc1)C(=O)N[C@H](C(=O)N[C@@H](CC(=O)O)C(=O)CSCc1ccccc1)C(C)C [(3S)-5-(benzylsulfanyl)-3-[(2S)-2-[(2S)-2-(5-bromo-2-methoxyphenyl)-3-phenylpropanamido]-3-methylbutanamido]-4-oxopentanoic acid]		5830	5810	4200	181
C=CC[C@H](C(=O)N[C@H](C(=O)N[C@@H](CC(=O)O)C(=O)CSCc1ccccc1)C(C)C)c1cc(Br)ccc1OC [(3S)-5-(benzylsulfanyl)-3-[(2S)-2-[(2S)-2-(5-bromo-2-methoxyphenyl)pent-4-enamido]-3-methylbutanamido]-4-oxopentanoic acid]		1620	6510	2210	80
C#CC[C@H](C(=O)N[C@H](C(=O)N[C@@H](CC(=O)O)C(=O)CSCc1ccccc1)C(C)C)c1cc(Br)ccc1OC [(3S)-5-(benzylsulfanyl)-3-[(2S)-2-[(2S)-2-(5-bromo-2-methoxyphenyl)pent-4-ynamido]-3-methylbutanamido]-4-oxopentanoic acid]		4470	> 10000	3620	341
CCC[C@H](C(=O)N[C@H](C(=O)N[C@@H](CC(=O)O)C(=O)CSCc1ccccc1)C(C)C)c1cc(Br)ccc1OC [(3S)-5-(benzylsulfanyl)-3-[(2S)-2-[(2S)-2-(5-bromo-2-methoxyphenyl)pentanamido]-3-methylbutanamido]-4-oxopentanoic acid]		4500	> 10000	5300	274
COc1ccc(Br)cc1C1(C(=O)N[C@H](C(=O)N[C@@H](CC(=O)O)C(=O)CSCc2ccccc2)C(C)C)CC1 [(3S)-5-(benzylsulfanyl)-3-[(2S)-2-{[1-(5-bromo-2-methoxyphenyl)cyclopropyl]formamido}-3-methylbutanamido]-4-oxopentanoic acid]		> 10000	> 10000	> 10000	323

More lines, now with the values ahead:

IC50 (Caspase-3) [nM]	IC50 (Caspase-8) [nM]	IC50 (Caspase-1) [nM]	IC50 (Caspase-7) [nM]	IC50 (Caspase-3; pH 7, 37 °C) [nM]	Compound
29	975	4490	545		COc1ccc(OC)c(C(O)C(=O)N[C@H](C(=O)N[C@@H](CC(=O)O)C(=O)CSCc2ccccc2)C(C)C)c1 (stereo partly drawn) [(3S)-5-(benzylsulfanyl)-3-[(2S)-2-[2-(2,5-dimethoxyphenyl)-2-hydroxyacetamido]-3-methylbutanamido]-4-oxopentanoic acid]
16	635	4850	290		COc1ccc(C(C)=O)cc1C(O)C(=O)N[C@H](C(=O)N[C@@H](CC(=O)O)C(=O)CSCc1ccccc1)C(C)C (stereo partly drawn) [(3S)-5-(benzylsulfanyl)-3-[(2S)-2-[2-(5-acetyl-2-methoxyphenyl)-2-hydroxyacetamido]-3-methylbutanamido]-4-oxopentanoic acid]
5	104	1540	91		COc1ccc(Br)cc1C(O)C(=O)N[C@H](C(=O)N[C@@H](CC(=O)O)C(=O)CSCc1ccccc1)C(C)C (stereo partly drawn) [(3S)-5-(benzylsulfanyl)-3-[(2S)-2-[2-(5-bromo-2-methoxyphenyl)-2-hydroxyacetamido]-3-methylbutanamido]-4-oxopentanoic acid]
16	98	675	135		COc1ccc(I)cc1C(O)C(=O)N[C@H](C(=O)N[C@@H](CC(=O)O)C(=O)CSCc1ccccc1)C(C)C (stereo partly drawn) [(3S)-5-(benzylsulfanyl)-3-[(2S)-2-[2-hydroxy-2-(5-iodo-2-methoxyphenyl)acetamido]-3-methylbutanamido]-4-oxopentanoic acid]
	5380	> 10000	3690	176	COc1ccc(Br)cc1[C@H](C)C(=O)N[C@H](C(=O)N[C@@H](CC(=O)O)C(=O)CSCc1ccccc1)C(C)C [(3S)-5-(benzylsulfanyl)-3-[(2S)-2-[(2S)-2-(5-bromo-2-methoxyphenyl)propanamido]-3-methylbutanamido]-4-oxopentanoic acid]
12	280	2460	63		COc1ccc(-c2nc(C)no2)cc1C(O)C(=O)N[C@H](C(=O)N[C@@H](CC(=O)O)C(=O)CSCc1ccccc1)C(C)C (stereo partly drawn) [(3S)-5-(benzylsulfanyl)-3-[(2S)-2-{2-hydroxy-2-[2-methoxy-5-(3-methyl-1,2,4-oxadiazol-5-yl)phenyl]acetamido}-3-methylbutanamido]-4-oxopentanoic acid]

— BindingDB's records for doi:10.1016/j.bmcl.2005.05.116 (Merck Frosst Canada, 2005)
